According to patent US6528095B1, “Anti-atherosclerotic and anti-thrombotic agent and the use thereof” (Potchefstroom University for Christian Higher Education, priority 2000, dated 2003):
Read-outs that look alike come from different tables or passages of the source.

What was measured:
[1] = tested on: fibrin clot; assay: Supplementation in human males: haemostatic variables and characteristics of fibrin networks developed in plasma; assay type: in vivo; settings: for CLOT (FIBRIN): clot fibrin content; for LYSIS TIME (t 50%) / Permeability: clot; for COMPACTION: fibrin clot; for MPC: macromolecular protein complex; for μ,: mass length ratio from turbidity; for FIBRINOGEN: plasma
Protocol: (§1) The respective effects of pectin and an acetate when administered to the colon of a mammal were determined during a first experiment. The experiment was conducted in the following two phases: [drawing 1]
(§2) Twenty human males participated in the experimentation and these subjects were not on any medication for any chronic diseases at the time, and also had no history of cardiovascular disease. All the subjects were at the time following a relatively high fibre, low fat diet. During the first phase ten subjects consumed a total of 15 grams of pectin per day in four aliquots, while the other ten consumed a total of 15 grams of placebo (starch) per day in four aliquots.
(§3) During the second phase, the first group consumed a total of 7.5 grams of calcium acetate per day in four aliquots and the second group consumed a total of 15 grams of pectin per day in four aliquots. The calcium acetate was administered in capsules which were coated with a protective coating comprising a resin known commercially as shellac. This protective coating is resistant to digestion and solution in the stomach and small intestines, is but not resistant to the enzymes of the organisms usually found in the colon, so that the calcium acetate was thus released in the colon.
(§4) Blood samples where taken from the subjects after each phase and a large number of variables where tested.

[2] = tested on: blood lipids; settings: for % Inhibition / [Hydroperoxide]: in vitro; for [Hydroperoxide]: n = 5
[3] = Pectin / calcium acetate supplementation in human males: body weight and BMI; assay type: in vivo
Source text: The acetate supplement (phase 2), however, caused a decrease (from 88.16±12.35 kg to 83.09±10.80 kg) in body weight. Although this decrease may not be of statistical significance, it can be clinically significant in the cases of those subjects who lost weight.

[4] = tested on: blood lipids; assay: Supplementation in human males: lipid variables; assay type: in vivo; settings: for TC: total cholesterol; for TG: triglycerides
Protocol: as §1, §2, §3, §4

[5] = Supplementation in human males: haemorheological variables (haematocrit, haemoglobin, plasma viscosity); assay type: in vivo; settings: for VISCOSITY: plasma
Protocol: as §1, §2, §3, §4

[6] = biological target: fibrin clot (Homo sapiens, UniProt P02671+P02675+P02679); settings: in vitro, n = 5
[7] = Supplementation in human males: metabolic variables; settings: for ACETATE: acetate level in blood sample; for FFA: free fatty acids; for IR: insulin resistance; for TP: total protein
Protocol: as §1, §2, §3, §4

[8] = biological target: fibrin (Homo sapiens, UniProt P02671+P02675+P02679); settings: progressive increase in acetate, FIG. 2
Source text: FIG. 2 is a urbidity curve of fibrin formation in the presence of different acetate concentrations; and
Referring to FIG. 2, the kinetics of network growth were subsequently investigated by continuously recording changes in turbidity at 608 nm, during network development under identical experimental conditions.

[9] = Pectin / calcium acetate supplementation in human males: body weight and BMI; assay type: in vivo; remark: listed apart in the source
[10] = phase 2, end of supplementation (pectin 15 g/day; calcium acetate 7.5 g/day)

Chain of fibrin clot (Homo sapiens, UniProt P02671+P02675+P02679) (P02671 36-629 limits assumed): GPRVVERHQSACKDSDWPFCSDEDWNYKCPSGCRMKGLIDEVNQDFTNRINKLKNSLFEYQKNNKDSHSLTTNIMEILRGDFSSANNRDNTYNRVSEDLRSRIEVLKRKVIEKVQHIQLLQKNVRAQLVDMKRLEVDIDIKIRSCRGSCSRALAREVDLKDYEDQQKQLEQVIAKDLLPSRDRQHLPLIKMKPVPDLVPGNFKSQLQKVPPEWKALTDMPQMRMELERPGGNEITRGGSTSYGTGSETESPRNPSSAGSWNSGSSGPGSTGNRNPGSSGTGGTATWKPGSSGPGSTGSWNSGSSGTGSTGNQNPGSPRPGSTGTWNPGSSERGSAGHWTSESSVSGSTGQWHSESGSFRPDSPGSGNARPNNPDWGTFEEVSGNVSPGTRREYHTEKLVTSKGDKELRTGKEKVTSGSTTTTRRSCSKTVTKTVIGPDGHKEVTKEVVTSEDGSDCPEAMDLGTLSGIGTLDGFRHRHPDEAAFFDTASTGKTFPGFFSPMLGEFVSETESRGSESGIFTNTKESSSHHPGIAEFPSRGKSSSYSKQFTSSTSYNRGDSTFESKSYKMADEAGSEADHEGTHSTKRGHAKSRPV
Chain of fibrin clot (Homo sapiens, UniProt P02671+P02675+P02679) (P02675 45-491 limits assumed): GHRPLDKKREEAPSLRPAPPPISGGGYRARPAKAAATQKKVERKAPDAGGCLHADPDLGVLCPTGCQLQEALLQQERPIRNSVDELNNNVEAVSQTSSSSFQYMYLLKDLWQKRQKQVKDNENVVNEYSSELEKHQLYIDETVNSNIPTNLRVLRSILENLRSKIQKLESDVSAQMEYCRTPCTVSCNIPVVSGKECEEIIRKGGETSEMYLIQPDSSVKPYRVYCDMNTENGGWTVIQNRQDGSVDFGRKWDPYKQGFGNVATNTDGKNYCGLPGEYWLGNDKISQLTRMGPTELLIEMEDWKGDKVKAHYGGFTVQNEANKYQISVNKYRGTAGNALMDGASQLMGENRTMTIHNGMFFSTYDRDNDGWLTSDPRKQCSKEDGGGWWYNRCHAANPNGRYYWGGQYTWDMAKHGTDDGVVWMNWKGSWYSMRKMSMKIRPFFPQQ
Chain of fibrin clot (Homo sapiens, UniProt P02671+P02675+P02679) (P02679 27-437 isoform P02679-2 limits assumed): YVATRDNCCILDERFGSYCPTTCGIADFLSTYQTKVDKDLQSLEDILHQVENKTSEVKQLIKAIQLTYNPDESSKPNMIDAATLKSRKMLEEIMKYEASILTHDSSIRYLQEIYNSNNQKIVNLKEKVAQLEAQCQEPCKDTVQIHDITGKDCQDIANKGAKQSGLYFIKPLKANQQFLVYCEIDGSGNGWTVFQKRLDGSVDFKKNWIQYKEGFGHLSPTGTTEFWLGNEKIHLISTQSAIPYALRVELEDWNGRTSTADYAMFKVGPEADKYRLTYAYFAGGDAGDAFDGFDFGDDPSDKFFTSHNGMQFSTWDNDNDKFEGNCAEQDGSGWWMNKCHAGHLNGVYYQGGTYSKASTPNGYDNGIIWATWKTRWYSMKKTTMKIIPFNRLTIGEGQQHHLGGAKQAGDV
Chain of fibrin (P02671 36-629 limits assumed): as the sequence (P02671 36-629 limits assumed) above
Chain of fibrin (P02675 45-491 limits assumed): as the sequence (P02675 45-491 limits assumed) above
Chain of fibrin (P02679 27-437 isoform P02679-2 limits assumed): as the sequence (P02679 27-437 isoform P02679-2 limits assumed) above

For `CC(=O)[O-].CC(=O)[O-].[Ca+2]` [ACETATE, calcium acetate], the “CLOT (FIBRIN)” value ([1]; phase 2, baseline) was 2.00 g/L, the “CLOT (FIBRIN)” value [1, 10] was 1.62 ± g/l and the “LYSIS TIME (t 50%)” value ([1]; phase 2, baseline) was 251.9. The Permeability ([1]; phase 2, baseline) was 212.52 × 10^11 cm^3, the “LYSIS TIME (t 50%)” value [1, 10] was 130.3 ± and the Permeability [1, 10] was 306.81 ± × 10^11 cm^3. For the same molecule, the COMPACTION ([1]; phase 2, baseline) was 22.47%, the COMPACTION [1, 10] was 32.21 ± % and the MPC ([1]; phase 2, baseline) was 0.1146 g/L. For the same molecule, the MPC [1, 10] was 0.0852 ± g/l, the “μ,” value ([1]; phase 2, baseline) was 22.93 Dal/cm × 10^12 and the “μ,” value [1, 10] was 34.28 ± Dal/cm × 10^12. For the same molecule, the “decrease in the total plasma fibrinogen concentration” value ([1]; phase 2, acetate supplementation, not significant) was 11.2%, the FIBRINOGEN ([1]; phase 2, baseline) was 4.10 g/L and the FIBRINOGEN [1, 10] was 3.64 g/L. The “% Inhibition” value ([2]; 0.05 mmol/L (50 μM) acetate) was 46.97%, the “[Hydroperoxide]” value ([2]; 0.05 mmol/L acetate) was 4.46 ± 0.15 × 10^−6 M and the “% Inhibition” value ([2]; 0.10 mmol/L (100 μM) acetate) was 56.01%. The “[Hydroperoxide]” value ([2]; 0.10 mmol/L acetate) was 3.70 ± 0.22 × 10^−6 M, the “% Inhibition” value ([2]; 0.20 mmol/L (200 μM) acetate) was 67.11% and the “[Hydroperoxide]” value ([2]; 0.20 mmol/L acetate) was 3.04 ± 0.23 × 10^−6 M. The “% Inhibition” value ([2]; 0.30 mmol/L (300 μM) acetate) was 73.12%, the “[Hydroperoxide]” value ([2]; 0.30 mmol/L acetate) was 2.26 ± 0.16 × 10^−6 M and the “minium inhibition: decrease of peroxidation in vitro from linear regression analysis” value ([2]; r=0.98, m=−0.836) was 56.12%. The BMI ([3]; phase 2, baseline) was 26.90 kg/m^2, the BMI [3, 10] was 25.65 kg/m^2 and the “% HDL-C” value ([4]; phase 2, baseline) was 17.04%. For the same molecule, the ApoA ([4]; phase 2, baseline) was 1.50 mmol/L, the ApoB ([4]; phase 2, baseline) was 1.47 mmol/L and the H2O3 ([4]; phase 2, baseline) was 1.27 µM. For the same molecule, the HDL-C ([4]; phase 2, baseline) was 1.11 mmol/L, the LDL-C ([4]; phase 2, baseline) was 4.97 ± mmol/l and the TBARM ([4]; phase 2, baseline) was 1.47 µM. The “% HDL-C” value [4, 10] was 20.32 ± %, the ApoA [4, 10] was 1.40 ± mmol/l and the ApoB [4, 10] was 1.34 ± mmol/l. For the same molecule, the H2O3 [4, 10] was 0.81 ± μM, the HDL-C [4, 10] was 1.18 mmol/L and the LDL-C [4, 10] was 4.20 ± mmol/l. The TBARM [4, 10] was 1.07 µM, the TC ([4]; phase 2, baseline) was 6.55 mmol/L and the TC [4, 10] was 5.81 ± mmol/l. The TG ([4]; phase 2, baseline) was 0.65 mmol/L, the TG [4, 10] was 1.33 ± mmol/l and the HAEMATOCRIT ([5]; phase 2, baseline) was 48.55%. For the same molecule, the HAEMOGLOBIN ([5]; phase 2, baseline) was 11.12 mmol/L, the HAEMATOCRIT [5, 10] was 46.83 ± % and the HAEMOGLOBIN [5, 10] was 10.48 mmol/L. For the same molecule, the VISCOSITY ([5]; phase 2, baseline) was 1.92 cP, the VISCOSITY [5, 10] was 1.61 ± cP and the “Clot [FIBRlN]” value ([6]; 75 μmol/L acetate) was 1.36 ± 0.03 g/L. The Permeability ([6]; 75 μmol/L acetate) was 110.4 ± 5.17 × 10^11 cm^2, the μT ([6]; 75 μmol/L acetate) was 17.44 ± 0.20 daltons/cm × 10^12 and the “Clot [FIBRlN]” value ([6]; 100 μmol/L acetate) was 1.37 ± 0.07 g/L. The Permeability ([6]; 100 μmol/L acetate) was 118.0 ± 6.03 × 10^11 cm^2, the μT ([6]; 100 μmol/L acetate) was 17.95 ± 0.22 daltons/cm × 10^12 and the “Clot [FIBRlN]” value ([6]; 150 μmol/L acetate) was 1.39 ± 0.05 g/L. For the same molecule, the Permeability ([6]; 150 μmol/L acetate) was 134.0 ± 5.02 × 10^11 cm^2, the μT ([6]; 150 μmol/L acetate) was 19.51 ± 0.17 daltons/cm × 10^12 and the ACETATE ([7]; phase 2, baseline) was 37.63 µmol/L. The ACETATE [7, 10] was 54.31 ± μmol/l, the FFA ([7]; phase 2, baseline) was 0.59 mmol/L and the FFA [7, 10] was 0.45 ± mmol/l. It also gave an IR ([7]; phase 2, baseline) of 3.22, an IR [7, 10] of 2.93 and an ALBUMIN ([7]; phase 2, baseline) of 43.09 g/L. For the same molecule, the GLUCOSE ([7]; phase 2, baseline) was 3.58 mmol/L, the INSULIN ([7]; phase 2, baseline) was 8.96 μU/ml and the PPA/ALB ([7]; phase 2, baseline) was 13.69 × 10^1. For the same molecule, the ALBUMIN [7, 10] was 45.50 g/L, the GLUCOSE [7, 10] was 3.78 mmol/L and the INSULIN [7, 10] was 7.61 μU/ml. For the same molecule, the PPA/ALB [7, 10] was 9.89 ± × 10^1, the TP ([7]; phase 2, baseline) was 71.69 g/L and the TP [7, 10] was 71.52 g/L. The “kinetics of network growth (turbidity at 608 nm)” value [8] was “enhanced the entire kinetics”, the “BODY WEIGHT” value ([9]; phase 2, baseline) was 88.16 ± 12.35 kg and the “BODY WEIGHT” value ([9]; phase 2, baseline, listed as PLACEBO) was 88.16 kg. The “decrease in body weight” value ([9]; phase 2, clinically significant but statistically insignificant) was 5.07 kg, the “BODY WEIGHT” value [9, 10] was 83.09 ± 10.80 kg and the “BODY WEIGHT” value ([9]; phase 2, end of supplementation (pectin 15 g/day; calcium acetate 7.5 g/day), listed as PLACEBO) was 83.04 kg.
